Experimental data: patent publication US10155001B2, “RAC1 inhibitors for inducing bronchodilation” (INSERM (Institut National de la Sante et de la Recherche …, priority 2013, dated 2018)
“Also recorded” adds a separate entry of the source.

Columns and labels:
[1] = system: bronchial rings from control and house dust mite (HDM)-sensitized mice; test: Contractile responses ex vivo of bronchial rings from control and house dust mite-sensitized mice; details: bronchial rings from control and HDM-sensitized mice pre-treated with inhibitor; FIG. 7
Protocol: (§1) Analysis of airways reactivity ex vivo: Primary bronchi were cut in 2 mm-long rings and mounted on a multichannel isometric myograph (Danish Myo Technology) containing a Krebs-Henseleit solution (118.4 mM NaCl, 4.7 mM KCl, 2 mM CaCl2, 1.2 mM MgSO4, 1.2 mM KH2PO4, 25 mM NaHCO3 and 11 mM glucose). A pre-trension of 0.5 mN was applied and maintained all along the protocol. We constructed cumulative concentration-response curves in response to KCl and methacholine (Sigma). When indicated, we pretreated rings with EHT1864 (Sigma) or NSC23766 (Calbiochem) Rac1 inhibitors at 10 μM, 1 h before contraction. Chambers wire myograph were connected to a digital data recorder (MacLab/4e, AD Instruments) and recordings were analyzed using LabChart v7 software (AD Instruments).
Allergic asthma induction: House dust mite model (HDM) of chronic asthma was used. In this case, mice were sensitized on days D0, D7, D14 and D21 by skin application of 500 μg of total extract of HDM Der f (Stallergenes) in 20 μL of dimethylsulfoxyde (DMSO, Sigma-Aldrich) on the ears. DMSO was used as an irritant able to facilitate the allergen penetration. Intranasal challenges were performed with Der f (250 μg in phosphate-buffered saline 250) on D27 and D34. Mice were sacrificed on D35 for ex vivo analysis.

[2] = system: AHR to methacholine in OVA-sensitized mice; test: Airway hyper-responsiveness to methacholine in OVA model of allergic asthma, plethysmography; details: for metacholine-induced airway response: summary statement: compared with SM-Rac1-KO mice in the OVA-sensitized model of allergic asthma; for AHR to methacholine: OVA-sensitized mice, nebulized before methacholine challenge, FIG. 6, E (o/o)
Protocol: Analysis of airways responsiveness in vivo: Airway responsiveness was assessed in conscious, unrestrained mice using a barometric, whole-body plethysmography (EMKA Technologies) by recording respiratory pressure curves in response to inhaled methacholine (Sigma) at concentrations of 0-40 mg/ml for 1 min. Airway responsiveness was expressed in enhanced pause (Penh) units. The Penh values measured after stimulation were averaged and expressed as the fold-increase over baseline values. Alternatively, dynamic airway resistance was measured using a Flexivent® apparatus (SCIREQ). In this case, mice were anesthetized by a ketamine/xylazine solution, tracheotomized, paralyzed and immediately intubated, followed by mechanical ventilation. Respiratory frequency was set at 150 breaths/min. Increasing concentrations of methacholine (0-15 mg/mL) were administered via a nebulizer aerosol system (Aeroneb, Aerogen).
Allergic asthma induction: When indicated, asthma was induced in mice by intraperitoneal injections with ovalbumin (OVA) in alum (Sigma) at D0, D14 and D21. Mice were challenged at D27, D28 and D29 through intranasal route with aerosolized OVA (50 μg in phosphate-buffered saline). These OVA-sensitized mice were used as a model of in vivo chronic asthma. Control mice were sensitized with PBS/alum and then were challenged with PBS.

[3] = system: methacholine-dependent bronchoconstriction; test: Airways responsiveness in vivo to inhaled methacholine, whole-body plethysmography, control (naive) mice; details: nebulized 10 min before methacholine challenge, FIG. 3, B and FIG. 6, E (ap/ap)
bronchial rings = test: Analysis of airways reactivity ex vivo: bronchial rings on isometric myograph; details: bronchial rings from SM-Rac1-KO mice; FIG. 2, A and B
Protocol: as §1

| SMILES | methacholine and KCl contractions (bronchial reactivity) [1] | metacholine-induced airway response [2] | methacholine-dependent bronchoconstriction (airway reactivity, Penh) [3] | AHR to methacholine [2] | KCl- and methacholine-induced contraction (bronchial rings) |
| --- | --- | --- | --- | --- | --- |
| O=c1cc(CN2CCOCC2)occ1OCCCCCSc1ccnc2cc(C(F)(F)F)ccc12 [EHT1864] | methacholine and KCl contractions are inhibited in both group of bronchial rings; also recorded: bronchial reactivities of control and HDM sensitized-mice are similar | Same results have been obtained | – | – | – |
| CC(C)(C)NCC(O)c1ccc(O)c(CO)c1 (centres unmarked) [salbutamol] | – | – | efficiency of NSC23766 aerosol inhalation is similar to that of salbutamol; also recorded: effect of NSC23766 aerosol inhalation was comparable to that of salbutamol treatment | effect of NSC23766 aerosol inhalation was comparable to that of salbutamol treatment | – |
| CCN(CC)CCCC(C)Nc1nc(C)cc(Nc2ccc3nc(C)cc(N)c3c2)n1 (centres unmarked) [NSC23766] | – | Same results have been obtained | prevented methacholine-dependent bronchoconstriction (FIG. 3, B) in a dose-dependent manner; also recorded: comparable to that of salbutamol treatment | almost completely prevented the AHR to methacholine; also recorded: comparable to that of salbutamol treatment | absence of any effect |
